From patent US6534534B1, “Pharmaceutical composition active in reducing production of MCP-1 protein” (Aziende Chimiche Riunite Angelini Francesco A.C.R.A.F. …, priority 1997, dated 2003)
Like-named read-outs stand apart in the source and are kept apart here.

How the values were obtained:
[1] = tested on: MCP-1; settings: for MCP-1: PBMC, LPS 100 ng/ml, 24 hours, supernatant
Description: (§1) The capability of bindarit to reduce production of MCP-1 by leucocytes (PBMC) stimulated by LPS was evaluated. White blood cells were isolated by centrifugation on a Ficoll gradient and then stimulated with LPS (100 ng/ml) for 24 hours in the presence or absence of scalar concentrations of bindarit. The supernatant fluid was collected at the end and levels of MCP-1 were measured by means of a specific immunoenzymatic test.

[2] = tested on: IL-8; settings: for IL-8: PBMC, LPS 100 ng/ml, 24 hours, supernatant
Description: as §1

[3] = tested on: mouse air pouch; settings: for Exudate / Leucocytes: bindarit 0.5% in diet for 18 days
Description: The action of bindarit was studied in an experimental model in the mouse, the said model being characterized by production of MCP-1, cell infiltration and formation of exudate. Mice were fed ad libitum with a standard diet for rodents or with the same diet with addition of bindarit (0.5%) for 18 days. On the twelfth day, under ether anaesthesia, sterile air (5 ml) was injected under the dorsal skin of the mice to form a sac. On the fifteenth day, again under ether anaesthesia, further sterile air (5 ml) was injected into the pre-formed sac. On the eighteenth day, a sterile physiological solution (1 ml) was injected into the sac thus obtained, or an irritant (1 ml). The said irritant was carrageen (1%) or IL-1 (40 ng). After 5 hours for IL-1, or 24 hours for carrageen, the mice were sacrificed by asphyxia with CO2. The exudate which had developed was collected and used for the leucocyte count and for measurement of the mediators produced.

[4] = IL-1, share of cells in exudate, bindarit 0.5% in diet

## CC(C)(OCc1nn(Cc2ccccc2)c2ccccc12)C(=O)O [Bindarit]
[1]; bindarit 25 μg/ml
  MCP-1: 1.5 ± 0.38 ng/mL
[1]; bindarit 50 μg/ml
  MCP-1: 1.6 ± 0.18 ng/mL
[1]; bindarit 100 μg/ml
  MCP-1: 0.8 ± 0.04 ng/mL
[1]; summary of Table 1
  production of MCP-1 induced by LPS (in words): significantly reduces
[2]; bindarit 25 μg/ml
  IL-8: 30 ± 5.20 ng/mL
[2]; bindarit 50 μg/ml
  IL-8: 37 ± 5.36 ng/mL
[2]; bindarit 100 μg/ml
  IL-8: 27 ± 5.8 ng/mL
[2]; summary of Table 1
  levels of IL-8 produced (in words): without substantially influencing
[3]; IL-1 (40 ng), 5 hours
  Exudate: 1.00 ± 0.01 mL
  Leucocytes: 7.5 ± 2.21
[3]; [4]
  Monocytes: 6%
  Polymorphonucleates: 94%
[3]; carrageen (1%), 24 hours
  Exudate: 0.90 ± 0.08 mL
  Leucocytes: 4.5 ± 0.64
[3]; summary of Table 2
  number of infiltrated cells (leucocytes) (in words): significant reduction
  volume of exudate collected (in words): without presenting a reduction
[3]; summary of Table 3
  percentage of monocytes attracted in the sac (in words): reduction
